# Results published in ChEMBL document CHEMBL1671662, “In vitro activities of telavancin and six comparator agents against anaerobic bacterial isolates” (2009).
# What was measured:
# Format in all cases: functional
# [1] = tested on: Peptostreptococcus anaerobius; experiment: Antibacterial activity against Peptostreptococcus anaerobius by CLSI M11-A6 agar dilution method
# Clostridium tertium = experiment: Antibacterial activity against Clostridium tertium by CLSI M11-A6 agar dilution method
# [2] = tested on: Paeniclostridium sordellii; experiment: Antibacterial activity against Clostridium sordellii by CLSI M11-A6 agar dilution method; settings: Paraclostridium sordellii
# Prevotella corporis = experiment: Antibacterial activity against Prevotella corporis by CLSI M11-A6 agar dilution method
# [3] = tested on: Streptococcus constellatus; experiment: Antibacterial activity against Streptococcus constellatus by CLSI M11-A6 agar dilution method
# [4] = tested on: Streptococcus intermedius; experiment: Antibacterial activity against Streptococcus intermedius by CLSI M11-A6 agar dilution method
# Ruminococcus torques = experiment: Antibacterial activity against Ruminococcus torques by CLSI M11-A6 agar dilution method; settings: Mediterraneibacter torques
# Clostridium leptum = experiment: Antibacterial activity against Clostridium leptum by CLSI M11-A6 agar dilution method
# Parabacteroides merdae = experiment: Antibacterial activity against Parabacteroides merdae by CLSI M11-A6 agar dilution method
# [5] = tested on: Peptoniphilus asaccharolyticus; experiment: Antibacterial activity against Peptoniphilus asaccharolyticus by CLSI M11-A6 agar dilution method
# Bifidobacterium breve = experiment: Antibacterial activity against Bifidobacterium breve by CLSI M11-A6 agar dilution method
# [6] = tested on: Bacteroides thetaiotaomicron; experiment: Antibacterial activity against Bacteroides thetaiotaomicron by CLSI M11-A6 agar dilution method
# Anaerococcus tetradius = experiment: Antibacterial activity against Anaerococcus tetradius by CLSI M11-A6 agar dilution method
# Bifidobacterium dentium = experiment: Antibacterial activity against Bifidobacterium dentium by CLSI M11-A6 agar dilution method
# Bilophila wadsworthia = experiment: Antibacterial activity against Bilophila wadsworthia by CLSI M11-A6 agar dilution method
# Prevotella intermedia = experiment: Antibacterial activity against Prevotella intermedia by CLSI M11-A6 agar dilution method
# Parvimonas micra = experiment: Antibacterial activity against Peptostreptococcus micros by CLSI M11-A6 agar dilution method
# Bifidobacterium bifidum = experiment: Antibacterial activity against Bifidobacterium bifidum by CLSI M11-A6 agar dilution method
# Clostridium beijerinckii = experiment: Antibacterial activity against Clostridium beijerinckii by CLSI M11-A6 agar dilution method
# Prevotella buccae = experiment: Antibacterial activity against Prevotella buccae by CLSI M11-A6 agar dilution method; settings: Segatella buccae
# Ruminococcus sp. = experiment: Antibacterial activity against Ruminococcus sp. by CLSI M11-A6 agar dilution method
# Bifidobacterium longum = experiment: Antibacterial activity against Bifidobacterium longum by CLSI M11-A6 agar dilution method
# [7] = tested on: Paraclostridium bifermentans; experiment: Antibacterial activity against Clostridium bifermentans by CLSI M11-A6 agar dilution method
# [8] = tested on: Catenibacterium mitsuokai; experiment: Antibacterial activity against Catenibacterium mitsuokai by CLSI M11-A6 agar dilution method
# Clostridium spiroforme = experiment: Antibacterial activity against Clostridium spiroforme by CLSI M11-A6 agar dilution method; settings: Thomasclavelia spiroformis
# Ruminococcus lactaris = experiment: Antibacterial activity against Ruminococcus lactaris by CLSI M11-A6 agar dilution method
# [9] = tested on: Propionibacterium propionicum; experiment: Antibacterial activity against Propionibacterium propionicus by CLSI M11-A6 agar dilution method; settings: Arachnia propionica
# Clostridium bartlettii = experiment: Antibacterial activity against Clostridium bartlettii by CLSI M11-A6 agar dilution method; settings: Intestinibacter bartlettii
# Clostridium glycolicum = experiment: Antibacterial activity against Clostridium glycolicum by CLSI M11-A6 agar dilution method; settings: Terrisporobacter glycolicus
# [10] = tested on: Prevotella melaninogenica; experiment: Antibacterial activity against Prevotella melaninogenica by CLSI M11-A6 agar dilution method
# Bacteroides fragilis = experiment: Antibacterial activity against Bacteroides fragilis by CLSI M11-A6 agar dilution method
# [11] = tested on: Enterocloster clostridioformis; experiment: Antibacterial activity against Clostridium clostridioforme by CLSI M11-A6 agar dilution method
# Phocaeicola vulgatus = experiment: Antibacterial activity against Bacteroides vulgatus by CLSI M11-A6 agar dilution method
# Prevotella disiens = experiment: Antibacterial activity against Prevotella P disiens by CLSI M11-A6 agar dilution method
# Clostridium scindens = experiment: Antibacterial activity against Clostridium scindens by CLSI M11-A6 agar dilution method
# Clostridium perfringens = experiment: Antibacterial activity against Clostridium perfringens by CLSI M11-A6 agar dilution method
# [12] = tested on: Ruminococcus flavefaciens; experiment: Antibacterial activity against Ruminococcus flavefaciens by CLSI M11-A6 agar dilution method
# Clostridium butyricum = experiment: Antibacterial activity against Clostridium butyricum by CLSI M11-A6 agar dilution method
# [Clostridium] innocuum = Antibacterial activity against Clostridium innocuum by CLSI M11-A6 agar dilution method
# [13] = tested on: Clostridium celerecrescens; experiment: Antibacterial activity against Clostridium celerecrescens by CLSI M11-A6 agar dilution method; settings: Lacrimispora celerecrescens
# Ruminococcus gnavus = experiment: Antibacterial activity against Ruminococcus gnavus by CLSI M11-A6 agar dilution method; settings: Mediterraneibacter gnavus
# Flavonifractor plautii = experiment: Antibacterial activity against Clostridium orbiscindens by CLSI M11-A6 agar dilution method
# Odoribacter splanchnicus = experiment: Antibacterial activity against Bacteroides splanchnicus by CLSI M11-A6 agar dilution method
smiles,measurement,setting,value
Cc1ncc([N+](=O)[O-])n1CCO [METRONIDAZOLE],MIC50,[1],0.5 µg/mL
same,MIC90,[1],2 µg/mL
same,MIC50,Clostridium tertium,0.25 µg/mL
same,MIC90,Clostridium tertium,1 µg/mL
same,MIC50,[2],0.25 µg/mL
same,MIC90,[2],1 µg/mL
same,MIC50,Prevotella corporis,0.5 µg/mL
same,MIC90,Prevotella corporis,1 µg/mL
same,MIC50,[3],128 µg/mL
same,MIC90,[3],> 128 µg/mL
same,MIC50,[4],128 µg/mL
same,MIC90,[4],> 128 µg/mL
same,MIC50,Ruminococcus torques,≤ 0.12 µg/mL
same,MIC90,Ruminococcus torques,0.25 µg/mL
same,MIC50,Clostridium leptum,0.25 µg/mL
same,MIC90,Clostridium leptum,1 µg/mL
same,MIC50,Parabacteroides merdae,1 µg/mL
same,MIC90,Parabacteroides merdae,2 µg/mL
same,MIC50,[5],0.5 µg/mL
same,MIC90,[5],2 µg/mL
same,MIC50,Bifidobacterium breve,1 µg/mL
same,MIC90,Bifidobacterium breve,128 µg/mL
same,MIC50,[6],1 µg/mL
same,MIC90,[6],1 µg/mL
same,MIC50,Anaerococcus tetradius,0.5 µg/mL
same,MIC90,Anaerococcus tetradius,2 µg/mL
same,MIC50,Bifidobacterium dentium,1 µg/mL
same,MIC90,Bifidobacterium dentium,128 µg/mL
same,MIC50,Bilophila wadsworthia,≤ 0.12 µg/mL
same,MIC90,Bilophila wadsworthia,0.25 µg/mL
same,MIC50,Prevotella intermedia,0.5 µg/mL
same,MIC90,Prevotella intermedia,1 µg/mL
same,MIC50,Parvimonas micra,0.5 µg/mL
same,MIC90,Parvimonas micra,2 µg/mL
same,MIC50,Bifidobacterium bifidum,1 µg/mL
same,MIC90,Bifidobacterium bifidum,128 µg/mL
same,MIC50,Clostridium beijerinckii,0.25 µg/mL
same,MIC90,Clostridium beijerinckii,1 µg/mL
same,MIC50,Prevotella buccae,0.5 µg/mL
same,MIC90,Prevotella buccae,1 µg/mL
same,MIC50,Ruminococcus sp.,0.5 µg/mL
same,MIC90,Ruminococcus sp.,2 µg/mL
same,MIC50,Bifidobacterium longum,1 µg/mL
same,MIC90,Bifidobacterium longum,128 µg/mL
same,MIC50,[7],0.25 µg/mL
same,MIC90,[7],1 µg/mL
same,MIC50,[8],1 µg/mL
same,MIC90,[8],128 µg/mL
same,MIC50,Clostridium spiroforme,0.25 µg/mL
same,MIC90,Clostridium spiroforme,1 µg/mL
same,MIC50,Ruminococcus lactaris,≤ 0.12 µg/mL
same,MIC90,Ruminococcus lactaris,0.25 µg/mL
same,MIC50,[9],1 µg/mL
same,MIC90,[9],128 µg/mL
same,MIC50,Clostridium bartlettii,0.25 µg/mL
same,MIC90,Clostridium bartlettii,1 µg/mL
same,MIC50,Clostridium glycolicum,0.25 µg/mL
same,MIC90,Clostridium glycolicum,1 µg/mL
same,MIC50,[10],0.5 µg/mL
same,MIC90,[10],1 µg/mL
same,MIC50,Bacteroides fragilis,1 µg/mL
same,MIC90,Bacteroides fragilis,2 µg/mL
same,MIC,[11],≤ 0.12 µg/mL
same,MIC50,[11],≤ 0.12 µg/mL
same,MIC90,[11],≤ 0.12 µg/mL
same,MIC50,Phocaeicola vulgatus,0.5 µg/mL
same,MIC90,Phocaeicola vulgatus,1 µg/mL
same,MIC50,Prevotella disiens,0.5 µg/mL
same,MIC90,Prevotella disiens,1 µg/mL
same,MIC50,Clostridium scindens,0.25 µg/mL
same,MIC90,Clostridium scindens,1 µg/mL
same,MIC50,Clostridium perfringens,0.5 µg/mL
same,MIC90,Clostridium perfringens,1 µg/mL
same,MIC50,[12],≤ 0.12 µg/mL
same,MIC90,[12],0.25 µg/mL
same,MIC50,Clostridium butyricum,0.25 µg/mL
same,MIC90,Clostridium butyricum,1 µg/mL
same,MIC50,[Clostridium] innocuum,0.5 µg/mL
same,MIC90,[Clostridium] innocuum,4 µg/mL
same,MIC50,[13],0.25 µg/mL
same,MIC90,[13],1 µg/mL
same,MIC50,Ruminococcus gnavus,0.25 µg/mL
same,MIC90,Ruminococcus gnavus,0.25 µg/mL
same,MIC50,Flavonifractor plautii,0.25 µg/mL
same,MIC90,Flavonifractor plautii,1 µg/mL
same,MIC50,Odoribacter splanchnicus,0.25 µg/mL
same,MIC90,Odoribacter splanchnicus,1 µg/mL
